In ChEMBL document CHEMBL3608249, “Indolylpiperidine derivatives as potent and selective α1B adrenoceptor antagonists” (Bioorg Med Chem Lett, 2015) one finds Ki, Ratio Ki and IC50 data, which are given here for six compounds.

The target of assay [1] is T1, Alpha-1A adrenergic receptor (Rattus norvegicus, UniProt P43140).
T1 sequence (P43140 whole entry): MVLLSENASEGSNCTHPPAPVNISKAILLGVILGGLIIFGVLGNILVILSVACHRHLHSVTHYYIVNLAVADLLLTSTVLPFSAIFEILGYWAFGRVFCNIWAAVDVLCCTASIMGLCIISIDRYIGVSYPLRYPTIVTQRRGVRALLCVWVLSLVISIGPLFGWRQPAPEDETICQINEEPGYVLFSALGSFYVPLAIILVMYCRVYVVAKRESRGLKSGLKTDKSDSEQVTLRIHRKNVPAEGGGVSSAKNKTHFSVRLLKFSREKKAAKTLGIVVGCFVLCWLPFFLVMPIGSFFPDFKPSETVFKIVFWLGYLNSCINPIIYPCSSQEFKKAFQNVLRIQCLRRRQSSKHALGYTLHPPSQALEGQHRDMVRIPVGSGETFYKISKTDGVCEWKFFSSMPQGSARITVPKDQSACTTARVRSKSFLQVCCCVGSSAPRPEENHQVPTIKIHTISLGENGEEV
Kind of assay: Displacement of [3H]prazosin from alpha1A adrenoceptor in rat submaxillary gland membrane. The assay is classed as cell membranes. (In general: In a radioligand displacement assay an active substance lowers the binding of a labelled ligand.)

Assay [2] concerns the target T2, Alpha-1B adrenergic receptor (Rattus norvegicus, UniProt P15823).
T2 sequence (P15823 whole entry): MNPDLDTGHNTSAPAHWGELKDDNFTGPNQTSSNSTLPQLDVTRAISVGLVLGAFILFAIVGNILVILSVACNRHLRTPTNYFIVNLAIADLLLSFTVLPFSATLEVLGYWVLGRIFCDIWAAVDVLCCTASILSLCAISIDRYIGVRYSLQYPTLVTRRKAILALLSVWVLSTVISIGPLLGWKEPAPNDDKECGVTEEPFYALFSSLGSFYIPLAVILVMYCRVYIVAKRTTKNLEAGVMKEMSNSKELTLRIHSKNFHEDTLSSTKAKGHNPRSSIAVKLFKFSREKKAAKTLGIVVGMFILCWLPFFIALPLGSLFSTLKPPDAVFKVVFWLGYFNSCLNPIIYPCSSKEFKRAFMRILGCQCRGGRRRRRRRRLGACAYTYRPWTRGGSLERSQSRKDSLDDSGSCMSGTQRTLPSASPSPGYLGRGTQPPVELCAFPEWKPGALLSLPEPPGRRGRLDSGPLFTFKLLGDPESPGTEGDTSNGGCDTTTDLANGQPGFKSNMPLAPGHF
Kind of assay: Displacement of [3H]prazosin from alpha1B adrenoceptor in rat liver membranes. In kind it is cell membranes, Membrane.

Assay [3] deals with T3, Alpha-1D adrenergic receptor (Homo sapiens, UniProt P25100).
T3 sequence (P25100 whole entry): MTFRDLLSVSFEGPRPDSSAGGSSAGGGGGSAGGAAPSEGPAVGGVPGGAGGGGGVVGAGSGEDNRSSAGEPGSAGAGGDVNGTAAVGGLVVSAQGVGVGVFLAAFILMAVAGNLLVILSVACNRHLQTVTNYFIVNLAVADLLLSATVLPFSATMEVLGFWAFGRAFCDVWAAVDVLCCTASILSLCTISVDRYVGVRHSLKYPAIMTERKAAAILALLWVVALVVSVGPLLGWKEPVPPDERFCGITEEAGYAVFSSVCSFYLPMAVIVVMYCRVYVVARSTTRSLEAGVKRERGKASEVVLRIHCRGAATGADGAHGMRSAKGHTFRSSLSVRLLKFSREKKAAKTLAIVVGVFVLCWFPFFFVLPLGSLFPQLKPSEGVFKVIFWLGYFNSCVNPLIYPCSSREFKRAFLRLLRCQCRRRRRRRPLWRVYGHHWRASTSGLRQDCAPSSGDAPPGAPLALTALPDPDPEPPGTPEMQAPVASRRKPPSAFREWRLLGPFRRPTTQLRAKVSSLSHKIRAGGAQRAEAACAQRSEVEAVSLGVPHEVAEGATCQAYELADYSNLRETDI
Kind of assay: Binding affinity to human recombinant alpha1D adrenoceptor.

Assay [4] addresses T4, Adrenergic receptor alpha-2 (Rattus norvegicus, UniProt P22086+P19328+P22909).
T4 sequence (P22086 whole entry): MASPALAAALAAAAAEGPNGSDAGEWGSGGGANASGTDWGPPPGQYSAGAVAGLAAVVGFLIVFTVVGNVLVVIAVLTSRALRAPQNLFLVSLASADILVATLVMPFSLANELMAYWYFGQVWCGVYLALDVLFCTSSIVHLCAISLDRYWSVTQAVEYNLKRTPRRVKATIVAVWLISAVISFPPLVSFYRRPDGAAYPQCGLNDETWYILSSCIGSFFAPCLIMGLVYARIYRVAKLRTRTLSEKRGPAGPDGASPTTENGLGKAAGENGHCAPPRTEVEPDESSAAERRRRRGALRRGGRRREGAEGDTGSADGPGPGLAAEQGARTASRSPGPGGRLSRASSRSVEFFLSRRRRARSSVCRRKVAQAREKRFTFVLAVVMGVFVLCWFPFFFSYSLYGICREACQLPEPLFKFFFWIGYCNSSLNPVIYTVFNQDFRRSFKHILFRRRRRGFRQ
T4 sequence (P19328 whole entry): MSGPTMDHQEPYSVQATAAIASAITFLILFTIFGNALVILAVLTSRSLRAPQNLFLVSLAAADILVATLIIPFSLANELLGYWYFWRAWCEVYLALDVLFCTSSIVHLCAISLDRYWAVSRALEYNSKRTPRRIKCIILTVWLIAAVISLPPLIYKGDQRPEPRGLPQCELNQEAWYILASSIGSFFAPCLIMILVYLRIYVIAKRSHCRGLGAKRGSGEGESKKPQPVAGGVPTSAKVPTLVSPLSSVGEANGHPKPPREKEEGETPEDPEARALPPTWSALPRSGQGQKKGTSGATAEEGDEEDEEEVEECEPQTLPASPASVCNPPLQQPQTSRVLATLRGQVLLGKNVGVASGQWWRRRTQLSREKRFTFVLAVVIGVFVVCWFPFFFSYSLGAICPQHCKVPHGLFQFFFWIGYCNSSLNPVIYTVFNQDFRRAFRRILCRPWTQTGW
T4 sequence (P22909 whole entry): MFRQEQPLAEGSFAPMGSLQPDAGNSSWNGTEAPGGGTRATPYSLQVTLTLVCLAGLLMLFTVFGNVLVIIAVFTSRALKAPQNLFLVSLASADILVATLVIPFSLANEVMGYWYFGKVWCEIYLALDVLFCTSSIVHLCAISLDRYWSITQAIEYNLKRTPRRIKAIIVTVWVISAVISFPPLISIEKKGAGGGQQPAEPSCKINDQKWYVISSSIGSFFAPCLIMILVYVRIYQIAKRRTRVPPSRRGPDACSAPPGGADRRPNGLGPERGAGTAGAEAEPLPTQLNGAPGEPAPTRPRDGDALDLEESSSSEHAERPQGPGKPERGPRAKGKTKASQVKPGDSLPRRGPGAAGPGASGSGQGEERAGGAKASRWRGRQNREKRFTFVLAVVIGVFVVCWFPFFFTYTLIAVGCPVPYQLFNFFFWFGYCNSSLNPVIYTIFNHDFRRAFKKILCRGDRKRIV
In words: Binding affinity to alpha2 adrenoceptor in rat cerebral cortex. The assay is classed as tissue-based.

The target in assay [5] is Adrenergic receptor beta (Rattus norvegicus, UniProt P18090+P10608+P26255). Kind of assay: Binding affinity to beta adrenoceptor in rat brain. The assay is classed as tissue-based.
Assay [6] can be described thus: Selectivity ratio of Ki for human recombinant alpha1D adrenoceptor to Ki for alpha1B adrenoceptor in rat liver membranes. The assay is classed as cell membranes.
The species named for assay [7] is Rattus norvegicus. In words: Selectivity ratio of Ki for alpha2 adrenoceptor in rat cerebral cortex to Ki for alpha1B adrenoceptor in rat liver membranes. In kind it is cell membranes.
Assay [8] is filed under the species Rattus norvegicus. Kind of assay: Selectivity ratio of Ki for beta adrenoceptor in rat brain to Ki for alpha1B adrenoceptor in rat liver membranes. In kind it is cell membranes.
The target in assay [9] is T5, Alpha-1B adrenergic receptor (Homo sapiens, UniProt P35368).
T5 sequence (P35368 whole entry): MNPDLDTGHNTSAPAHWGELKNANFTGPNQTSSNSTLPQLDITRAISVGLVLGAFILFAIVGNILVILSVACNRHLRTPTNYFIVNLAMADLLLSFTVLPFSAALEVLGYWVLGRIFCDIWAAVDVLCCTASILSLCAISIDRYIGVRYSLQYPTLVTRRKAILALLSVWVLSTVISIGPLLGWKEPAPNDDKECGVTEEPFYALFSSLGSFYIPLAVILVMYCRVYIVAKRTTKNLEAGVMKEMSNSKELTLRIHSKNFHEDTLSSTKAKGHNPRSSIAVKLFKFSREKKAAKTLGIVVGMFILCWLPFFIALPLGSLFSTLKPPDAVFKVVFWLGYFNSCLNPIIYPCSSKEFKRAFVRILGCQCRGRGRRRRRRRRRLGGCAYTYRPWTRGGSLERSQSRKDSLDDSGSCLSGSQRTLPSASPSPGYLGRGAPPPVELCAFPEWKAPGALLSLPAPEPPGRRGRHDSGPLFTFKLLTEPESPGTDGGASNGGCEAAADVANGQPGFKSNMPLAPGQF
In words: Antagonist activity at human alpha1B adrenoceptor assessed as inhibition of norepinephrine-induced increase of intracellular calcium level by cell based assay. In kind it is functional. (In general: Calcium flux is commonly read through the fluorescence of an indicator in the cells.)

Some results are limits rather than exact numbers.

Turning to `CN(C)CCCN1CCC(c2c[nH]c3ccccc23)CC1`, the Ki (commonly a measure of affinity in units of concentration, obtained from inhibition or displacement) in assay [1] turned out to be 240 nM; in assay [2], 4.8 nM.

For `c1ccc2c(C3CCN(CCCn4cccc4)CC3)c[nH]c2c1`, the results for the Ki in assay [1] and in assay [2] were 86 nM and 11 nM, respectively.

For the compound `c1ccc2c(C3CCNCC3)c[nH]c2c1`, the Ki was found to be 3100 nM in assay [1] and 440 nM in assay [2].

`Fc1ccc2c(C3CCN(CCCN4CCc5ccccc5C4)CC3)c[nH]c2c1`: the Ki in [3] is 16 nM; in assay [4] it was 90 nM; in [5], more than 1000 nM. Moreover, the Ratio Ki in [6], in assay [7] and in assay [8] was 40 throughout. For the same compound, the 50% inhibitory concentration (IC50) – broadly, the concentration at which inhibition is half-maximal – in [9] stood at 560 nM.

As for `c1ccc(CCCN2CCC(c3c[nH]c4ccccc34)CC2)cc1`, the figures for the inhibition constant (Ki) in [1] and in [2] were 16 nM and 13 nM, respectively.

`c1ccc2c(C3CCN(CCCC4CCCCC4)CC3)c[nH]c2c1`: the Ki was 140 nM in assay [1] and 47 nM in [2].
